Data taken from ChEMBL document CHEMBL4014295, “Discovery and structure-activity relationship studies of N-substituted indole derivatives as novel Mcl-1 inhibitors” (Bioorg Med Chem Lett, 2017).

Legend:
[1] = biological target: Induced myeloid leukemia cell differentiation protein Mcl-1 (Homo sapiens, UniProt Q07820); test: Inhibition of 6-carboxyfluorescein succinimidyl ester fluorescence tagged-Bid BH3 peptide (79 to 99 residues) binding to Mcl-1 (unknown origin) after 30 mins by fluorescence polarization assay
Chain of Induced myeloid leukemia cell differentiation protein Mcl-1 (Q07820 whole entry, the tested form may be a part): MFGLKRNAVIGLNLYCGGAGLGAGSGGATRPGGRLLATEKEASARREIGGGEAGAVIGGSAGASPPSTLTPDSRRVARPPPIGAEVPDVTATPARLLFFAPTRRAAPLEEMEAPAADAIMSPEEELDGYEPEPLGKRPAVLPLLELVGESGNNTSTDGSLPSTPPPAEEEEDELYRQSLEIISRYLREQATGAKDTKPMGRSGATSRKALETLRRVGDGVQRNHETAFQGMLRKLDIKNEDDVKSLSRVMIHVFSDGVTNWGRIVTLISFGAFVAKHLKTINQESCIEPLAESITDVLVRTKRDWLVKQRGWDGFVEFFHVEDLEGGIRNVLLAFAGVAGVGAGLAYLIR

[2] = biological target: Apoptosis regulator Bcl-2 (Homo sapiens, UniProt P10415); test: Inhibition of 6-carboxyfluorescein succinimidyl ester fluorescence tagged-Bid BH3 peptide (79 to 99 residues) binding to Bcl-2 (unknown origin) after 30 mins by fluorescence polarization assay
Chain of Apoptosis regulator Bcl-2 (P10415 whole entry, the tested form may be a part): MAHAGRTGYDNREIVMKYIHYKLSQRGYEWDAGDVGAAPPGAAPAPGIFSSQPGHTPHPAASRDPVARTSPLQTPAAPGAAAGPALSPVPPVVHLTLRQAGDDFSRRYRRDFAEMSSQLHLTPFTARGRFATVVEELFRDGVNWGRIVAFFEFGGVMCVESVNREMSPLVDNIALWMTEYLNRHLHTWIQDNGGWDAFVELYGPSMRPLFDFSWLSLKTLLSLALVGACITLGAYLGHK

Row | SMILES | Ki [1] | Ki [2]
1 | Cc1cc(OCCCn2ccc3ccccc32)cc(C)c1Cl | > 30000 nM | 
2 | CC(C)(C)c1ccc(SCCCn2ccc3ccc(OCC(=O)O)cc32)cc1 | 2380 nM | 
3 | CCOC(=O)COc1ccc2ccn(CCCOc3cc(C)c(Cl)c(C)c3)c2c1 | 3370 nM | 
4 | Cc1cc(OCCCn2ccc3c(OCc4ccccc4C(=O)O)cccc32)cc(C)c1Cl | 140 nM | 230 nM
5 | CC(C)(C)Oc1ccc(OCCCn2ccc3ccc(OCC(=O)O)cc32)cc1 | 1870 nM | 
6 | Cc1cc(OCCCn2c(C(=O)N(C)C)cc3ccc(OCc4ccccc4C(=O)O)cc32)cc(C)c1Cl | 570 nM | 730 nM
7 | Cc1cc(C)cc(OCCCn2ccc3ccc(OCC(=O)O)cc32)c1 | 12500 nM | 
8 | O=C(O)COc1ccc2ccn(CCCOc3ccccc3)c2c1 | > 30000 nM | 
9 | CCOC(=O)c1ccc2ccn(CCCOc3cc(C)c(Cl)c(C)c3)c2c1 | > 30000 nM | 
10 | CC(C)(C)c1ccc(OCCCn2ccc3cc(OCc4cccc(C(=O)O)c4)ccc32)cc1 | 250 nM | 470 nM
11 | Cc1cc(OCCCn2c(C(=O)N3CCCCC3)cc3ccc(OCc4ccccc4C(=O)O)cc32)cc(C)c1Cl | 200 nM | 270 nM
12 | Cc1cc(OCCn2ccc3ccc(OCC(=O)O)cc32)cc(C)c1Cl | 11600 nM | 
13 | Cc1cc(OCCCn2ccc3ccc(OCc4ccc(C(=O)O)cc4)cc32)cc(C)c1Cl | 1190 nM | 1240 nM
14 | NC(=O)c1cc2ccc(OCC(=O)O)cc2n1CCCOc1cccc2ccccc12 | 10300 nM | 
15 | O=C(O)COc1ccc2ccn(CCCOc3ccc(Oc4ccccc4)cc3)c2c1 | 3240 nM | 
16 | Cc1cc(OCCCn2ccc3ccc(OCC(=O)O)cc32)ccc1Cl | 9890 nM | 
17 | Cc1ccc2ccn(CCCOc3cc(C)c(Cl)c(C)c3)c2c1 | > 30000 nM | 
18 | CC(C)(C)c1ccc(OCCCn2ccc3cc(OCc4ccccc4C(=O)O)ccc32)cc1 | 310 nM | 170 nM
19 | Cc1cc(OCCCn2ccc3c(OCc4cccc(C(=O)O)c4)cccc32)cc(C)c1Cl | 150 nM | 140 nM
20 | Cc1cc(OCCCn2ccc3ccc(OCCCC(=O)O)cc32)cc(C)c1Cl | 2680 nM | 
21 | Cc1cc(OCCCn2ccc3c(OCC(=O)O)cccc32)cc(C)c1Cl | 2000 nM | 

Row | SMILES | Ki [1] | Ki [2]
22 | CC(C)(C)Oc1ccc(OCCCn2c(C(N)=O)cc3ccc(OCC(=O)O)cc32)cc1 | 5380 nM | 
23 | COc1ccc(OCCCn2ccc3ccc(OCC(=O)O)cc32)cc1 | 4420 nM | 
24 | Cc1cc(OCCCn2ccc3ccc(OCc4ccccc4C(=O)O)cc32)cc(C)c1Cl | 800 nM | 1050 nM
25 | Cc1cc(OCCCn2ccc3cc(OCc4ccc(C(=O)O)cc4)ccc32)cc(C)c1Cl | 1630 nM | 1410 nM
26 | O=C(O)COc1ccc2ccn(CCCOc3ccc(Cl)cc3)c2c1 | 12900 nM | 
27 | Cc1cc(OCCCn2ccc3ccc(OCCO)cc32)cc(C)c1Cl | 2100 nM | 
28 | Cc1cc(OCCCn2ccc3ccc(OCc4cccc(C(=O)O)c4)cc32)cc(C)c1Cl | 740 nM | 1190 nM
29 | Cc1cccc(OCCCn2ccc3ccc(OCC(=O)O)cc32)c1 | > 30000 nM | 
30 | CNC(=O)c1cc2ccc(OCc3ccccc3C(=O)O)cc2n1CCCOc1cc(C)c(Cl)c(C)c1 | 890 nM | 810 nM
31 | NC(=O)c1cc2ccc(OCC(=O)O)cc2n1CCCOc1ccc(Oc2ccccc2)cc1 | 4130 nM | 
32 | Cc1cc(OCCCn2ccc3cc(OCc4cccc(C(=O)O)c4)ccc32)cc(C)c1Cl | 200 nM | 410 nM
33 | Cc1cc(OCCCn2ccc3ccc(OCC(=O)O)cc32)cc(C)c1Cl | 1500 nM | 
34 | CC(C)(C)c1ccc(OCCCn2c(C(=O)N3CCCCC3)cc3ccc(OCc4ccccc4C(=O)O)cc32)cc1 | 360 nM | 150 nM
35 | Cc1cc(OCCCn2ccc3ccc(C(=O)O)cc32)cc(C)c1Cl | 3000 nM | 
36 | O=C(O)COc1ccc2ccn(CCCOc3cccc4ccccc34)c2c1 | 2570 nM | 
37 | CC(C)(C)c1ccc(OCCn2ccc3ccc(OCC(=O)O)cc32)cc1 | 8190 nM | 
38 | Cc1cc(OCCCn2c(C(N)=O)cc3ccc(OCc4ccccc4C(=O)O)cc32)cc(C)c1Cl | 950 nM | 850 nM
39 | Cc1cc(OCCCn2ccc3cc(OCC(=O)O)ccc32)cc(C)c1Cl | 1490 nM | 
40 | COc1ccc(OCCCn2c(C(N)=O)cc3ccc(OCC(=O)O)cc32)cc1 | 7780 nM | 
41 | Cc1cc(OCCCn2ccc3cc(OCc4ccccc4C(=O)O)ccc32)cc(C)c1Cl | 110 nM | 760 nM
42 | Cc1cc2c(C(C)C)c(O)c(O)c(C=O)c2c(O)c1-c1c(C)cc2c(C(C)C)c(O)c(O)c(C=O)c2c1O [GOSSYPOL] | 200 nM | 
